Test system: NOMO1
Assay: cell viability relative to DMSO control; higher = less cytotoxic
Settings: 48 h
Outline: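 In 1536-well plates, 5 μl of leukemia cells were seeded per well: 500 cells/well for NOMO1 or SEM and 1000 cells/well for P12-Ichikawa. Each line had first been adapted for at least four passages in each medium. Library compounds in DMSO were pin-dosed at 11 threefold concentrations between 47 μM and 0.79 nM, and CellTiter-Glo One luminescence was read after 48 h at 37°C. Viability is a per-plate percentage relative to DMSO wells, with cell-free wells as background.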

[1] = HPLM + 10% dialyzed FBS, 0.000781 µM
[2] = HPLM + 10% dialyzed FBS, 0.00234 µM
[3] = HPLM + 10% dialyzed FBS, 0.00702 µM
[4] = HPLM + 10% dialyzed FBS, 0.0211 µM
[5] = HPLM + 10% dialyzed FBS, 0.0632 µM
[6] = HPLM + 10% dialyzed FBS, 0.19 µM
[7] = HPLM + 10% dialyzed FBS, 0.569 µM
[8] = HPLM + 10% dialyzed FBS, 1.71 µM
[9] = HPLM + 10% dialyzed FBS, 5.12 µM
[10] = HPLM + 10% dialyzed FBS, 15.4 µM
[11] = HPLM + 10% dialyzed FBS, 46.1 µM
[12] = RPMI 5 mM glucose + 10% FBS, 0.000781 µM
[13] = RPMI 5 mM glucose + 10% FBS, 0.00234 µM
[14] = RPMI 5 mM glucose + 10% FBS, 0.00702 µM
[15] = RPMI 5 mM glucose + 10% FBS, 0.0211 µM
[16] = RPMI 5 mM glucose + 10% FBS, 0.0632 µM
[17] = RPMI 5 mM glucose + 10% FBS, 0.19 µM
[18] = RPMI 5 mM glucose + 10% FBS, 0.569 µM
[19] = RPMI 5 mM glucose + 10% FBS, 1.71 µM
[20] = RPMI 5 mM glucose + 10% FBS, 5.12 µM
[21] = RPMI 5 mM glucose + 10% FBS, 15.4 µM
[22] = RPMI 5 mM glucose + 10% FBS, 46.1 µM
[23] = RPMI 5 mM glucose + 10% dialyzed FBS, 0.000781 µM
[24] = RPMI 5 mM glucose + 10% dialyzed FBS, 0.00234 µM
[25] = RPMI 5 mM glucose + 10% dialyzed FBS, 0.00702 µM
[26] = RPMI 5 mM glucose + 10% dialyzed FBS, 0.0211 µM
[27] = RPMI 5 mM glucose + 10% dialyzed FBS, 0.0632 µM
[28] = RPMI 5 mM glucose + 10% dialyzed FBS, 0.19 µM
[29] = RPMI 5 mM glucose + 10% dialyzed FBS, 0.569 µM
[30] = RPMI 5 mM glucose + 10% dialyzed FBS, 1.71 µM
[31] = RPMI 5 mM glucose + 10% dialyzed FBS, 5.12 µM
[32] = RPMI 5 mM glucose + 10% dialyzed FBS, 15.4 µM
[33] = RPMI 5 mM glucose + 10% dialyzed FBS, 46.1 µM

SMILES	cell viability [1]	cell viability [2]	cell viability [3]	cell viability [4]	cell viability [5]	cell viability [6]	cell viability [7]	cell viability [8]	cell viability [9]	cell viability [10]	cell viability [11]	cell viability [12]	cell viability [13]	cell viability [14]	cell viability [15]	cell viability [16]	cell viability [17]	cell viability [18]	cell viability [19]	cell viability [20]	cell viability [21]	cell viability [22]	cell viability [23]	cell viability [24]	cell viability [25]	cell viability [26]	cell viability [27]	cell viability [28]	cell viability [29]	cell viability [30]	cell viability [31]	cell viability [32]	cell viability [33]
CN1\C(=C(O)/C2=C(C=C(Cl)S2)[S+]1([O-])=O)C(=O)NC3=NC=CC=C3	138%	112%	116%	125%	119%	111%	132%	103%	125%	123%	108%	109%	108%	110%	105%	119%	128%	126%	109%	108%	121%	111%	115%	101%	126%	120%	131%	126%	123%	118%	112%	116%	114%
Cc1ccnc(N[S+](=O)([O-])c2ccc(NC(=O)Nc3ccc([S+](=O)([O-])Nc4nccc(C)n4)cc3)cc2)n1	100%	99.6%	99.3%	101%	107%	20.8%	37.1%	7.33%	6.39%	4.89%	2.2%	97.6%	83.9%	83.5%	90.1%	86.6%	36%	53.1%	7.07%	5.88%	4.91%	2.42%	79.3%	77.8%	88%	85.2%	86.5%	46.8%	56%	6.77%	5.66%	4.24%	2.51%
Cc1ccc([S+](=O)([O-])NC(=O)NN2CC3CCCC3C2)cc1 (centres undefined)	108%	127%	114%	104%	134%	113%	96.6%	104%	111%	53.4%	30.3%	98%	104%	105%	104%	106%	99.5%	113%	102%	108%	55.6%	24.1%	96.4%	118%	101%	105%	106%	110%	103%	106%	110%	57.3%	36%
OC[C@H]1O[C@H](C[C@@H]1O)N2\C=C(\I)C(=O)NC2=O	107%	118%	105%	126%	116%	113%	114%	125%	105%	91.3%	79.2%	112%	120%	110%	113%	120%	116%	127%	119%	129%	115%	88.6%	103%	118%	114%	117%	132%	117%	133%	104%	97.1%	98.5%	86.2%
CCN(CC)CCNC(=O)c1ccc2nc(-c3ccccc3)c(-c3ccc(CN4CCC(n5c(=O)[nH]c6ccccc65)CC4)cc3)nc2c1	95.1%	124%	152%	134%	112%	130%	107%	93.6%	10.6%	8.39%	4.57%	–	–	–	–	–	–	–	–	–	–	–	–	–	–	–	–	–	–	–	–	–	–
N[C@@H](Cc1ccc(N(CCCl)CCCl)cc1)C(=O)O	–	–	–	–	–	–	–	–	–	–	–	124%	130%	123%	142%	150%	140%	137%	137%	124%	44.8%	23.8%	–	–	–	–	–	–	–	–	–	–	–
O=P1(NCCCl)OCCCN1CCCl (centres undefined)	90.5%	102%	96.8%	104%	97.7%	84.6%	119%	117%	99.7%	109%	76.1%	82.3%	88%	79.4%	77.2%	77%	89.2%	83.5%	86.8%	91.1%	76.8%	79.4%	86.9%	87.6%	81.1%	85.3%	85.6%	87.9%	87.4%	97.5%	84.6%	98.5%	78.1%
CCCCCCCN(CC)CCCC(O)c1ccc(NS(C)(=O)=O)cc1.CCCCCCCN(CC)CCCC(O)c1ccc(NS(C)(=O)=O)cc1.O=C(O)/C=C/C(=O)O (centres undefined)	117%	112%	126%	126%	114%	126%	127%	108%	122%	112%	102%	94.3%	108%	105%	99.8%	107%	106%	97.1%	107%	101%	107%	110%	110%	114%	107%	100%	99.9%	124%	103%	109%	114%	112%	90.3%
CCC[S+](=O)([O-])Nc1ccc(F)c(C(=O)c2c[nH]c3ncc(-c4ccc(Cl)cc4)cc23)c1F	124%	112%	113%	116%	143%	132%	108%	99.7%	108%	116%	93.2%	101%	113%	112%	103%	117%	113%	106%	120%	112%	111%	98.9%	113%	116%	112%	129%	109%	112%	121%	107%	108%	112%	94.5%
C[C@@H](Oc1ccc2[nH]nc(/C=C/c3cnn(CCO)c3)c2c1)c1c(Cl)cncc1Cl	99.5%	102%	98.9%	93.9%	99.9%	89.7%	86%	86.4%	70.9%	38.4%	41.3%	94.6%	108%	89.2%	86%	80.9%	83.6%	89.3%	76.3%	74.2%	40%	33.9%	82.9%	92.3%	89%	85.2%	92.8%	99.1%	87.4%	73.5%	80.9%	40.9%	34.9%
CCNC(=O)c1noc(-c2cc(C(C)C)c(O)cc2O)c1-c1ccc(CN2CCOCC2)cc1	91.6%	98.5%	109%	121%	76.2%	19.2%	24.1%	20%	20.9%	19.3%	21.2%	119%	108%	123%	116%	92.6%	13.5%	13.7%	15.4%	16%	16%	19.3%	107%	128%	114%	131%	96.4%	18.9%	17.3%	20.3%	17.4%	19.5%	22.4%
COc1cc2nc(N3CCN(C(=O)c4ccco4)CC3)nc(N)c2cc1OC	77.8%	103%	93.7%	97%	98.3%	105%	105%	92.8%	91.8%	43%	5.27%	72.1%	78.4%	81.6%	83.9%	87.5%	91.9%	82.2%	85.1%	90.7%	95.9%	4.8%	72%	83.6%	82.1%	80.5%	90%	92.2%	95.2%	98.2%	80.4%	88.4%	4.29%
COc1cc([C@@H]2c3cc4c(cc3[C@@H](O[C@@H]3O[C@@H]5CO[C@@H](C)O[C@H]5[C@H](O)[C@H]3O)[C@H]3COC(=O)[C@H]23)OCO4)cc(OC)c1O	93.9%	98.1%	83.4%	103%	87.5%	99.9%	96.3%	60.3%	19.3%	18.1%	21.6%	95.4%	84.9%	89.9%	85.9%	79.1%	81.1%	91.4%	63%	10.3%	11.7%	15.3%	84.7%	76.7%	80.7%	85.9%	81.7%	82.1%	87.9%	73.7%	15.6%	13.1%	18.9%
COc1ccccc1N1CCN(CC(O)COc2cccc3ccccc23)CC1 (centres undefined)	–	–	–	–	–	–	–	–	–	–	–	115%	131%	122%	133%	132%	143%	116%	115%	113%	107%	23.6%	–	–	–	–	–	–	–	–	–	–	–
COC1=CC=CC(=C1/C2=N/CC3=C(N=C(NC4=CC(=C(C=C4)C(O)=O)OC)N=C3)C5=CC=C(Cl)C=C25)F	78.5%	88.3%	78.9%	88.2%	76.3%	38.6%	53.4%	48.3%	58.6%	62%	51.6%	70.8%	80.6%	77.2%	84%	71.4%	28.4%	48.8%	46.5%	49.8%	53.6%	61.8%	82.2%	77.5%	72.9%	82.2%	63.7%	51.9%	49.4%	48.2%	49%	50.5%	61%
CCCC[N+]1(C)[C@@H]2CC(OC(=O)[C@H](CO)c3ccccc3)C[C@H]1[C@@H]1O[C@@H]12 (some centres undefined)	–	–	–	–	–	–	–	–	–	–	–	106%	107%	118%	120%	125%	102%	114%	97.9%	93.6%	77.7%	15.6%	120%	124%	136%	127%	129%	118%	121%	122%	117%	105%	22.7%
C=C1C(=O)O[C@@H]2[C@H]3O[C@]3(C)CC/C=C(\C)CC[C@@H]12	110%	117%	110%	115%	117%	142%	114%	93.8%	15.9%	14.9%	3.29%	115%	121%	116%	113%	112%	108%	106%	102%	46.4%	5.46%	3.54%	98.1%	103%	104%	113%	114%	124%	112%	99.1%	62.3%	6.1%	3.17%
